From patent publication US20050124638A1, “Benzimidazoles and analogs thereof as antivirals” (priority 2003, published 2005)
Read-outs that look alike come from different tables or passages of the source.

What was measured:
[1] = test system: HCV IRES stem IIa RNA target; assay: Mass spectrometry based binding assay; details: for binding percentages of ligand to target: ligand 50 μM, IIa target 2.5 μM, Table 1
[2] = Single dose in vivo pharmacokinetic study; details: rats, single 3.0 mg/kg IV, mean; for clearance / Vd: rat, plasma; for Vd: read-out: Vdss
Procedure: A single dose pharmacokinetic study was performed to investigate the pharmacokinetics of representative compounds. Of particular interest was […] the ability of the compounds to accumulate in liver, which is the target tissue for HCV chemotherapy as it is the primary reservoir of virus. 3-4 rats per group were administered a single dose (3 mg/kg intravenously, IV or 6 mg/kg orally, PO). Blood samples were taken at 0.25, 0.5, 1, 2, 3, 4, 6, and 8 h timepoints, and pharmacokinetic parameters calculated. Both representative compounds were rapidly distributed to tissues, as evidenced by the high clearance rates and volumes of distribution, and low levels of excretion (ca 10% of total drug in urine and feces at 8 h). Major tissues were examined for presence of drug. […] The tissue accumulation for the IV dose is shown in FIG. 1, as a function of concentration and percent of total administered dose.

[3] = test system: HCV RNA levels in Ntat2ANeo replicon containing cell line; assay: Replicon assay (Ntat2ANeo replicon cells, quantitative RT-PCR of HCV RNA); type: cell-based; details: Hepatitis C virus; Table 8
[4] = test system: female mice; assay: Acute in vivo toxicity study; details: 5 or 45 mg/kg i.p. for 3 days
Procedure: In the study design, 3-4 female mice/group were dosed with 0, 5 or 45 mg/kg of IBIS00553642, IBIS000408094, or IBIS00405746 for 3 days (i.p.). Clinical signs, body weights, clinical pathology, organ weights, and histopathology endpoints were evaluated.
A single dose toxicity study was performed to investigate the toxicity of representative compounds. Briefly, 3-4 female mice per group were administered 0, 5, or 45 mg/kg drug (intraperitoneal) on consecutive days for 3 days. At the end of the study, mice were sacrificed, and clinical signs, body weights, clinical pathology, organ weights, and histopathology endpoints were evaluated. […] The gross findings at necropsy were minor and limited to discolorations in liver and kidney or large gallbladder in 4/18 mice (no dose response and unclear relationship to drug). […] There were no drug-related effects on clinical pathology.

[5] = MTT toxicity assay; type: cell-based
Source text: The color was quantified by spectrophotometric means. For each cell type a linear relationship between cell number and absorbance is established, enabling quantification of changes of proliferation.

[6] = Table 8, read-out: Kd to IIa target
[7] = constrained vs unconstrained N1/N2 side chains, read-out: KD

Compound	Kd [1, 6] [µM]	IC50 [3] [µM]	CC50 at 48 h [5] [µM]	also measured
Nc1nc2ccccc2n1CCCN1CCCC1	–	–	–	binding percentages of ligand to target [1]: 15%
CCN(CC)CCn1c(N)nc2ccccc21	–	–	–	binding percentages of ligand to target [1]: 15%
CN(C)CCn1c(N)nc2ccccc21	–	–	–	binding percentages of ligand to target [1]: 11%
Nc1nc2ccccc2n1CCOc1ccccc1	–	–	–	binding percentages of ligand to target [1]: 6%
COc1ccc2nc(N)n(CCCN(C)C)c2c1	–	–	–	MS Target Selectivity ([1]; Table 2): ˜10; Kd ([1]; Table 2, read-out: Est. KD): ~40 µM
CN(C)CCCOc1ccc2nc(N)[nH]c2c1	–	–	–	MS Target Selectivity ([1]; Table 3): ˜2; Kd ([1]; Table 3, read-out: Est. KD): > 500 µM
CN(C)CCCOc1ccc2ncn(CCCN(C)C)c2c1	–	–	–	MS Target Selectivity ([1]; Table 3): 1; Kd ([1]; Table 3, read-out: Est. KD): > 500 µM
CN(C)CCCn1c(N)nc2ccc(OCCCN(C)Cc3ccco3)cc21	–	–	–	clearance [2]: 34.5 mL/min/kg; Vd [2]: 82.8 L/kg; % AUC Extrap [2]: 80.0%; AUC [2]: 311 ng·h/mL; AUC Extrap [2]: 1928 ng·h/mL; Co [2]: 201 ng/mL; MRT [2]: 3.1 h; T1/2 [2]: 37.5 h
CN(C)CCCOc1ccc2nc(N)n(CCCN(C)C)c2c1 [IBIS00403514]	3.8	37.1	–	–
CN(C)CCCn1c(N)nc2ccc(OCCCN[C@@H]3CCN(Cc4ccccc4)C3)cc21 [IBIS00405746]	–	–	–	Clinical Signs [4]: No significant toxicity at 5 mg/kg dose.
CN(CCCOc1ccc2nc(N)n(CCCN3CCCCC3)c2c1)Cc1ccc[nH]1 [IBIS00408094]	–	–	–	Clinical Signs [4]: No significant toxicity at 5 and 45 mg/kg doses.
CN(C)CCCOc1ccc2nc3n(c2c1)CC(CN(C)C)CN3 (stereo not shown) [IBIS00408169]	4.5	28.7	> 100	–
CN(C)CC1CNc2nc3ccc(OCCCNC4CCN(Cc5ccccc5)CC4)cc3n2C1 (stereo not shown) [IBIS00528633]	4	13.7	> 100	–
CN(C)CC1CNc2nc3ccc(OCCCN4CCC(N5CCCC5)CC4)cc3n2C1 (stereo not shown) [IBIS00528634]	1.7	19.2	> 100	–
CN(C)CC1CNc2nc3ccc(OCCCN[C@@H]4CCN(Cc5ccccc5)C4)cc3n2C1 (stereo partly shown) [IBIS00528635]	1	42.3	90	–
CN(C)CC1CNc2nc3ccc(OCCCN(C)Cc4ccc[nH]4)cc3n2C1 (stereo not shown) [IBIS00528636]	1.2	27.2	90	–
CN(C)CC1CNc2nc3ccc(OCCCN(C)Cc4ccccn4)cc3n2C1 (stereo not shown) [IBIS00528637]	0.56	14.2	> 100	–
CC1CCCCN1CCCn1c(N)nc2ccc(OCCCN(C)Cc3ccccn3)cc21 (stereo not shown) [IBIS00553642]	–	–	–	Clinical Signs [4]: No significant toxicity at 5 and 45 mg/kg doses.
CN(C)CCCOc1ccc2nc3n(c2c1)CC(CN1CCCCC1)CN3 (stereo not shown) [IBIS00554807]	3.4	14.1	> 100	–
CN(CCCOc1ccc2nc3n(c2c1)CC(CN1CCCCC1)CN3)Cc1ccccn1 (stereo not shown) [IBIS00554811]	4.3	24	> 100	–
CN(CCCOc1ccc2nc3n(c2c1)CC(CN1CCCCC1)CN3)Cc1ccco1 (stereo not shown) [IBIS00554813]	5.1	18.2	> 100	–
CN(C)CC1CNc2nc3ccc(OCCCN(C)Cc4cccn4C)cc3n2C1 (stereo not shown) [IBIS00554842]	0.78	4	50	–
CN(C)CC1CNc2nc3ccc(OCCCN(C)Cc4ncc[nH]4)cc3n2C1 (stereo not shown) [IBIS00554843]	3.1	> 100	> 100	–
CN(C)CC1CNc2nc3ccc(OCCCN(C)Cc4ccco4)cc3n2C1 (stereo not shown) [IBIS00554844]	1.7	4.9	> 100	–

Compound	Kd [1, 6] [µM]	IC50 [3] [µM]	CC50 at 48 h [5] [µM]	also measured
CN(C)CC1CNc2nc3ccc(OCCCN(C)Cc4cccs4)cc3n2C1 (stereo not shown) [IBIS00554886]	5	15.3	> 100	–
CN(C)CC1CNc2nc3ccc(OCCCN(C)Cc4nccs4)cc3n2C1 (stereo not shown) [IBIS00554888]	8.8	> 100	> 100	–
CN(C)CC1CNc2nc3ccc(OCCCN(C)Cc4ccc(CO)o4)cc3n2C1 (stereo not shown) [IBIS00554889]	5.9	57.9	> 100	–
CN(C)CC1CNc2nc3ccc(OCCCN(C)Cc4cccc(Br)n4)cc3n2C1 (stereo not shown) [IBIS00560002]	110	11.6	> 100	–
CN(C)CCCn1c(N)nc2ccc3c(c21)CC(CN(C)C)CO3 (stereo not shown) [IBIS00560020]	2.2	9	> 100	–
CN(C)CCCn1c(N)nc2ccc3c(c21)CC(CCN)CO3 (stereo not shown) [IBIS00560024]	3.4	> 100	> 100	–
CN(C)CCCn1c(N)nc2ccc3c(c21)CC(CN(C)CCN(C)C)CO3 (stereo not shown) [IBIS00560025]	9.4	71.2	> 100	–
CN(C)CCCn1c(N)nc2ccc3c(c21)CC(CN(C)Cc1cccn1C)CO3 (stereo not shown) [IBIS00560031]	18	21.7	> 100	–
CN(C)CCCn1c(N)nc2ccc3c(c21)CC(CN(C)C)O3 (stereo not shown) [IBIS00560047]	–	–	> 100	–
CN(C)CCCn1c(N)nc2ccc3c(c21)CC(CN(C)CCN(C)C)O3 (stereo not shown) [IBIS00560048]	11	23	> 100	–
CNCC1COc2ccc3nc(N)n(CCCN(C)C)c3c2C1 (stereo not shown) [IBIS00560100]	3.1	51.6	> 100	–
CN(C)CCCn1c(N)nc2ccc3c(c21)CC(CN(C)C(=N)N)CO3 (stereo not shown) [IBIS00560101]	5.5	> 100	> 100	–
CN(C)CCCn1c(N)nc2ccc3c(c21)CC(CN(C)Cc1cccn1C)O3 (stereo not shown) [IBIS00560102]	10.4	3.3	> 100	–
CN(C)CCCn1c(N)nc2ccc3c(c21)CC(CN)CO3 (stereo not shown) [IBIS00560121]	17.2	42.7	> 100	–
CN(C)CCCn1c(N)nc2ccc3c(c21)CC(CN(C)Cc1ncc[nH]1)CO3 (stereo not shown) [IBIS00560122]	19.6	> 100	> 100	–
CN(C)CC1COc2ccc3nc4n(c3c2C1)CC(CN(C)C)CN4 (stereo not shown) [IBIS00560146]	21.1	5.4	> 100	–
CN(C)CCCn1c(N)nc2ccccc21 [drawing 62]	–	–	–	binding percentages of ligand to target [1]: 56% binding
CN(C)CCCn1c(N)nc2ccccc21 [drawing 67]	–	–	–	MS Target Selectivity ([1]; Table 2): ˜3; Kd ([1]; Table 2, read-out: Est. KD): ~100 µM
CN(C)CCCOc1ccc2nc(N)n(CCCN(C)C)c2c1 [drawing 69]	–	–	–	MS Target Selectivity ([1]; Table 2): ˜15; Kd ([1]; Table 2, read-out: Est. KD): ~10 µM
CN(C)CCCOc1ccc2nc(N)n(CCCN(C)C)c2c1 [drawing 70]	–	–	–	MS Target Selectivity ([1]; Table 3): ˜15; Kd ([1]; Table 3, read-out: Est. KD): ~10 µM
CN(C)CCCn1c(N)nc2ccccc21 [drawing 71]	–	–	–	MS Target Selectivity ([1]; Table 3): ˜3; Kd ([1]; Table 3, read-out: Est. KD): ~100 µM
CN(C)CCCOc1ccc2nc3n(c2c1)CC(CN(C)C)CN3 (stereo not shown) [drawing 124]	–	–	–	Kd [1, 7]: 0.67 µM
CN(C)CCCOc1ccc2nc(N)n(CCCN(C)C)c2c1 [drawing 125]	–	–	–	Kd [1, 7]: 3.6 µM
CN(C)CC1CNc2nc3ccc(OCCCN(C)Cc4ccccn4)cc3n2C1 (stereo not shown) [drawing 164]	–	–	–	clearance [2]: 160 mL/min/kg; Vd [2]: 137 L/kg; % AUC Extrap [2]: 47%; AUC [2]: 165 ng·h/mL; AUC Extrap [2]: 320 ng·h/mL; Co [2]: 219 ng/mL; MRT [2]: 2 h; T1/2 [2]: 14 h
